SMILES strings stand for the structures.

One experiment has as its system Human Colon Carcinoma HT-29. As to the kind of experiment: Human Tumor Xenograft Assay, tumor growth delay. Type of experiment: in vivo, mouse. Particulars: Experiment A, 30 mg/kg IV, 5 consecutive days, 2 days rest. The source says:
Inhibition of tumors transplanted into mice is an accepted procedure for studying the efficacy of antitumor agents (Corbett, et al., In vivo Methods for Screening and Preclinical Testing; Use of rodent solid tumors for drug discovery., In: Anticancer Drug Development Guide: Preclinical Screening, Clinical Trials, and Approval, B. Teicher (ed), Humana Press Inc., Totowa, N.J., Chapter 5, pages 75-99 (1997); (Corbett, et al., Int. J. Pharmacog., 33, Supplement, 102-122 (1995)). Murine tumors or human xenografts were implanted essentially as described by Corbett in In vivo Methods for Screening and Preclinical Testing; Use of rodent solid tumors for drug discovery. Briefly, the murine tumor or human xenograft was implanted subcutaneously using either 12-gauge trocar implants or counted number of cells. The location for the trocar insertion is midway between the axillary and inguinal region along the side of the mouse. The trocar is slipped approximately ¾ of an inch subcutaneously up toward the axilla before discharging the tumor fragment, and pinching the skin as the trocar is removed. Alternatively, human tumor cells prepared from cell culture (1×10^7 cells) mixed with an equal volume of Matrigel (Becton-Dickinson) were implanted subcutaneously in a hind-leg of a male or female nude mouse (Charles River). A test compound in vehicle or vehicle alone was administered by intravenous bolus injection (iv), intraperitoneal injection (ip), or oral gavage (po). Each treatment group, as well as a group of untreated control animals, consisted of eight to ten animals per group in each experiment. Subcutaneous tumor response was monitored by tumor volume measurement performed twice each week over the course of the experiment (60-120 days). Body weights were taken as a general measure of toxicity. The subcutaneous tumor data were analyzed by determining the median […] for each treatment group over the course of the experiment and calculating the tumor growth delay as the difference in days for the treatment versus the control tumors to reach a volume of either 500 or 1000 mm^3.
The compound of Example 64 was tested in two separate laboratories against a variety of murine and human tumors substantially as described supra. The parameters measured in each experiment are summarized in the following paragraphs. Tumor Weight(mg)=(a×b^2)/2 where a=tumor length (mm) and b=tumor width (mm).
Tumor Growth Delay=T−C where T is the median time (days) required for the treatment group tumors to reach a predetermined size, and C is the median time (days) for the control group tumors to reach the same size.
After palpable tumors were observed drug was administered IV for 5 consecutive days, animals rested for 2 days and compound dosed IV again for 5 consecutive days.
In general terms: Xenograft models place foreign cells or tissue in a host animal.
Regarding `O=C([N-]S(=O)(=O)c1ccc(Br)s1)c1ccc(Cl)cc1Cl.[Na+]` [Example 64, N-[2,4-dichlorobenzoyl]-5-bromothiophene-2-sulfonamide sodium salt], the “Tumor Growth Delay” value is 0 ± 2 days.

The experiment is the same for the next values; noted with them: Experiment A, 60 mg/kg IV, 5 consecutive days, 2 days rest.
On to `O=C([N-]S(=O)(=O)c1ccc(Br)s1)c1ccc(Cl)cc1Cl.[Na+]` [Example 64, N-[2,4-dichlorobenzoyl]-5-bromothiophene-2-sulfonamide sodium salt], for which the “Tumor Growth Delay” value is 2 ± 2 days.

Still in this experiment, the particulars now being: Experiment A, 80 mg/kg IV, 5 consecutive days, 2 days rest.
Regarding `O=C([N-]S(=O)(=O)c1ccc(Br)s1)c1ccc(Cl)cc1Cl.[Na+]` [Example 64, N-[2,4-dichlorobenzoyl]-5-bromothiophene-2-sulfonamide sodium salt], the “Tumor Growth Delay” value is 2 ± 2 days.

Still in this experiment, the particulars now being: Experiment B, 30 mg/kg IV, 5 consecutive days, 2 days rest.
Consider `O=C([N-]S(=O)(=O)c1ccc(Br)s1)c1ccc(Cl)cc1Cl.[Na+]` [Example 64, N-[2,4-dichlorobenzoyl]-5-bromothiophene-2-sulfonamide sodium salt], for which the “Tumor Growth Delay” value turned out to be 9 ± 4 days.

Still in this experiment, the particulars now being: Experiment B, 60 mg/kg IV, 5 consecutive days, 2 days rest.
`O=C([N-]S(=O)(=O)c1ccc(Br)s1)c1ccc(Cl)cc1Cl.[Na+]` [Example 64, N-[2,4-dichlorobenzoyl]-5-bromothiophene-2-sulfonamide sodium salt]: the “Tumor Growth Delay” value stood at 3 ± 4 days.

Staying with this experiment, now noted: Experiment B, 80 mg/kg IV, 5 consecutive days, 2 days rest.
As to `O=C([N-]S(=O)(=O)c1ccc(Br)s1)c1ccc(Cl)cc1Cl.[Na+]` [Example 64, N-[2,4-dichlorobenzoyl]-5-bromothiophene-2-sulfonamide sodium salt], the “Tumor Growth Delay” value stood at 8 ± 3.6 days.

In another experiment the test system is Human Colon HCT116 tumor cells. As to the kind of experiment: HCT116 Colon Carcinoma Cell Growth Inhibition (WST-1). Type of experiment: cell-based. The note with it: HCT-116, 72 hr exposure. Here is the method: Human HCT 116 colon carcinoma cells were grown monolayer culture in RPMI 1640 medium supplemented with 10% fetal bovine serum and 1% penicillin-streptomycin (GibcoBRL, Grand Island, N.Y.). HCT116 cells in exponential growth phase were exposed to various concentrations of the test compounds at 37° C. for 72 hr in 5% carbon dioxide/air. After exposure to the agent, the cells were washed with 0.9% phosphate buffered saline. Growth inhibition was determined using WST-1 cell proliferation reagent as described above. The results are expressed as the growth fraction of treated cells compared with control cultures. Representative compounds of the present invention were tested for efficacy against the human colon HCT116 tumor cells.
On the technique in general: Tetrazolium dyes change colour on reduction, which living cells bring about.
Regarding `O=C(NS(=O)(=O)c1ccc(Br)s1)c1ccc(Br)cc1Br` [Example 32, N-[2,4-dibromobenzoyl]-5-bromothiophene-2-sulfonamide], the IC50 (usually the point on the concentration scale where inhibition reaches its midpoint) was 3.9 µM.

In the case of `COCc1ccc(S(=O)(=O)NC(=O)c2ccc(Cl)cc2Cl)s1` [Example 20, N-[2,4-dichlorobenzoyl]-5-methoxymethyl-thiophene-2-sulfonamide], the IC50 amounted to 5.7 µM.

Turning to `O=C(NS(=O)(=O)c1cc(Br)c(Cl)s1)c1ccc(Br)cc1Cl` [Example 3, N-[4-bromo-2-chlorobenzoyl]-4-bromo-5-chlorothiophene-2-sulfonamide], the IC50 came to 14.7 µM.

The compound `Cc1cc(Br)ccc1C(=O)NS(=O)(=O)c1ccc(C#N)s1` [Example 29, N-[4-bromo-2-methylbenzoyl]-5-cyanothiophene-2-sulfonamide] returned an IC50 of 17.3 µM.

As to `O=C(NS(=O)(=O)c1ccc(Br)s1)c1ccc([N+](=O)[O-])cc1Cl` [Example 58, N-[2-chloro-4-nitrobenzoyl]-5-bromothiophene-2-sulfonamide], the half-inhibitory concentration (IC50) is 5.2 µM.

In turn, `O=C(NS(=O)(=O)c1ccc(-c2ccccn2)s1)c1ccc(Cl)cc1Cl` [Example 56, N-[2,4-dichlorobenzoyl]-5-(2-pyridyl)-thiophene-2-sulfonamide] gave an IC50 of 5.4 µM.

`O=C(NS(=O)(=O)c1ccc(Br)s1)c1ccc(Cl)cc1Cl` [Example 63, N-[2,4-dichlorobenzoyl]-5-bromothiophene-2-sulfonamide] came in with an IC50 of 1.3 µM.

The compound `Cc1ccc(C(=O)NS(=O)(=O)c2ccc(Cl)s2)c(Br)c1` [Example 31, N-[2-bromo-4-methylbenzoyl]-5-chlorothiophene-2-sulfonamide] had a 50% inhibitory concentration (IC50) of 9.1 µM.

`O=C(NS(=O)(=O)c1ccc(Cl)s1)c1ccc(C(F)(F)F)cc1C(F)(F)F` [Example 4, N-[2,4-bis(trifluoromethyl)-benzoyl]-5-chlorothiophene-2-sulfonamide]: the IC50 worked out at 7.7 µM.

`COc1ccc(S(=O)(=O)NC(=O)c2ccc(Cl)cc2Cl)s1` [Example 19, N-[2,4-dichlorobenzoyl]-5-methoxythiophene-2-sulfonamide] returned a half-maximal inhibitory concentration (IC50) of 5.8 µM.

The compound `CCCc1ccc(S(=O)(=O)NC(=O)c2ccc(Cl)cc2Cl)s1` [Example 18, N-[2,4-dichlorobenzoyl]-5-(propyl)thiophene-2-sulfonamide] yielded an IC50 of 13.2 µM.

`O=C(NS(=O)(=O)c1ccc(Cl)s1)c1ccc(Cl)cc1Cl` [Example 61, N-[2,4-dichlorobenzoyl]-5-chlorothiophene-2-sulfonamide]: the IC50 came to 1 µM.

Consider `O=C(NS(=O)(=O)c1ccc(Cl)s1)c1ccc(Br)cc1Cl` [Example 1, N-[4-bromo-2-chlorobenzoyl]-5-chlorothiophene-2-sulfonamide], for which the midpoint of inhibition, the IC50, lay at 5.6 µM.

Compound `O=C(NS(=O)(=O)c1ccc(Br)s1)c1ccc(Br)cc1Cl` [Example 54, N-[4-bromo-2-chlorobenzoyl]-5-bromothiophene-2-sulfonamide] returned an IC50 of 17 µM.

The compound `Cc1cc(Cl)ccc1C(=O)NS(=O)(=O)c1ccc(Cl)s1` [Example 30, N-[4-chloro-2-methylbenzoyl]-5-chlorothiophene-2-sulfonamide] showed an IC50 of 15.8 µM.

`Cc1cc(Cl)ccc1C(=O)NS(=O)(=O)c1ccc(C#N)s1` [Example 28, N-[4-chloro-2-methylbenzoyl]-5-cyanothiophene-2-sulfonamide] came in with a half-inhibitory concentration (IC50) of 8 µM.

`CCc1ccc(S(=O)(=O)NC(=O)c2ccc(Cl)cc2Cl)s1` [Example 17, N-[2,4-dichlorobenzoyl]-5-(ethyl)thiophene-2-sulfonamide] displayed an IC50 of 5 µM.

The compound `Cc1ccc(C(=O)NS(=O)(=O)c2ccc(Br)s2)c(Cl)c1` [Example 7, N-[2-chloro-4-methylbenzoyl]-5-bromothiophene-2-sulfonamide] displayed an IC50 of 5.2 µM.

The compound `Cc1cc(Cl)ccc1C(=O)NS(=O)(=O)c1ccc(Br)s1` [Example 2, N-[4-chloro-2-methylbenzoyl]-5-bromothiophene-2-sulfonamide] gave an IC50 of 6 µM.

With `O=C(NS(=O)(=O)c1ccc(Br)s1)c1ccc(Cl)cc1F` [Example 9, N-[4-chloro-2-fluorobenzoyl]-5-bromothiophene-2-sulfonamide], it took 21.7 µM to reach half-maximal inhibition (IC50).

With `Cc1ccc(C(=O)NS(=O)(=O)c2ccc(Cl)s2)c(C)c1` [Example 6, N-[2,4-dimethylbenzoyl]-5-chlorothiophene-2-sulfonamide], half-maximal inhibition (IC50) was put at 20.6 µM.

`Cc1ccc(S(=O)(=O)NC(=O)c2ccc(Cl)cc2Cl)s1` [Example 16, N-[2,4-dichlorobenzoyl]-5-(methyl)thiophene-2-sulfonamide]: inhibition was half-maximal at 3.7 µM (IC50).

`Cc1cc(Br)ccc1C(=O)NS(=O)(=O)c1ccc(Br)s1` [Example 57, N-[4-bromo-2-methylbenzoyl]-5-bromothiophene-2-sulfonamide] returned a half-maximal inhibitory concentration (IC50) of 3.4 µM.

Regarding `O=C(NS(=O)(=O)c1cccs1)c1ccc(Cl)cc1Cl` [Example 55, N-[2,4-dichlorobenzoyl]-thiophene-2-sulfonamide], half-maximal inhibition (IC50) was put at 4.5 µM.

The values are drawn from patent publication US7250430B2, “Thiophene-and thiazolesulfonamides as antineoplastic agents” (Eli Lilly and Company, priority 2006, dated 2007).
